Assays:
Pyricularia oryzae = assay: microbe, parasite or virus in culture; assay type: cell-based; settings: 168 h, read-out: control compared to the untreated check (radial growth)
Rhizoctonia solani = Rhizoctonia solani (rice sheath blight/potato black scurf) in vitro test, radial growth on potato dextrose agar; assay type: cell-based; settings: 168 h, 300 ppm in potato dextrose agar, 25° C., 60% relative humidity, seven days, read-out: control compared to the untreated check (radial growth)
Botrytis cinerea = Botrytis cinerea (gray mold) in vitro test, radial growth on potato dextrose agar; assay type: cell-based; settings: 168 h, 300 ppm in potato dextrose agar, 22° C., 90% relative humidity, seven days, read-out: control compared to the untreated check (radial growth)
[1] = test system: Septoria lycopersici/Corynespora cassicola (CORYCA); assay: Septoria lycopersici/Corynespora cassicola (CORYCA) (leaf spot of tomato) in vitro test, radial growth on potato dextrose agar; assay type: cell-based; settings: 168 h, 300 ppm in potato dextrose agar, 25° C., 70% relative humidity, seven days, read-out: control compared to the untreated check (radial growth)
Alternaria solani = Alternaria solani (early blight of tomato/potato) in vitro test, radial growth on potato dextrose agar; assay type: cell-based; settings: 168 h, 300 ppm in potato dextrose agar, 25° C., 60% relative humidity, seven days, read-out: control compared to the untreated check (radial growth)
Phakopsora pachyrhizi = Phakopsora pachyrhizi test in soybean, preventive, in vivo on plants; settings: in Glycine max, read-out: Efficacy (% control), disease severity compared to the untreated check

CCN(C)C=Nc1cc(F)cc(Cc2ccccc2F)c1C [Compound 141, N-ethyl-N′-(5-fluoro-3-(2-fluorobenzyl)-2-methylphenyl)-N-methylformimidamide]
≥ 70%: inhibition of growth at 300 ppm (Pyricularia oryzae) | inhibition of growth at 300 ppm (Rhizoctonia solani) | inhibition of growth at 300 ppm (Botrytis cinerea) | inhibition of growth at 300 ppm [1]

CCN(C)C=Nc1cc(Cl)cc(Nc2ccccc2F)c1C [Compound 165, N′-(5-chloro-3-((2-fluorophenyl)amino)-2-methylphenyl)-N-ethyl-N-methylformimidamide]
≥ 70%: inhibition of growth at 300 ppm (Pyricularia oryzae) | inhibition of growth at 300 ppm (Rhizoctonia solani) | inhibition of growth at 300 ppm (Alternaria solani) | inhibition of growth at 300 ppm [1]

CCN(C)C=Nc1cc(F)cc(Nc2c(C)cccc2F)c1C [Compound 121, N-ethyl-N′-(5-fluoro-3-((2-fluoro-6-methylphenyl)amino)-2-methylphenyl)-N-methylformimidamide]
≥ 70%: inhibition of growth at 300 ppm (Pyricularia oryzae) | inhibition of growth at 300 ppm (Alternaria solani) | inhibition of growth at 300 ppm [1] | pest or weed control at 500 ppm (Phakopsora pachyrhizi)

CCN(C)C=Nc1cc(F)cc(Nc2ccc(Cl)cc2F)c1C [Compound 136, N′-(3-((4-chloro-2-fluorophenyl)amino)-5-fluoro-2-methylphenyl)-N-ethyl-N-methylformimidamide]
≥ 70%: inhibition of growth at 300 ppm (Pyricularia oryzae) | inhibition of growth at 300 ppm (Rhizoctonia solani) | inhibition of growth at 300 ppm (Botrytis cinerea) | inhibition of growth at 300 ppm (Alternaria solani) | inhibition of growth at 300 ppm [1]

CCN(C)C=Nc1cc(Cl)cc(Cc2ccc(F)c(Cl)c2)c1C [Compound 130, N′-(5-chloro-3-(3-chloro-4-fluorobenzyl)-2-methylphenyl)-N-ethyl-N-methylformimidamide]
≥ 70%: inhibition of growth at 300 ppm (Pyricularia oryzae) | inhibition of growth at 300 ppm (Rhizoctonia solani) | inhibition of growth at 300 ppm (Alternaria solani) | inhibition of growth at 300 ppm [1] | pest or weed control at 500 ppm (Phakopsora pachyrhizi)

CCN(C)C=Nc1cc(C)cc(Nc2ccccc2OC(F)(F)F)c1Cl [Compound 302, N′-(2-chloro-5-methyl-3-((2-(trifluoromethoxy)phenyl)amino)phenyl)-N-ethyl-N-methylformimidamide]
≥ 70%: inhibition of growth at 300 ppm (Pyricularia oryzae) | inhibition of growth at 300 ppm (Rhizoctonia solani) | inhibition of growth at 300 ppm (Botrytis cinerea) | inhibition of growth at 300 ppm (Alternaria solani) | inhibition of growth at 300 ppm [1]

CCN(C)C=Nc1cc(OC)cc(Nc2cccc(C(F)(F)F)n2)c1C [Compound 272, N-ethyl-N′-(5-methoxy-2-methyl-3-((6-(trifluoromethyl)pyridin-2-yl)amino)phenyl)-N-methylformimidamide]
≥ 70%: inhibition of growth at 300 ppm (Pyricularia oryzae) | inhibition of growth at 300 ppm (Alternaria solani) | inhibition of growth at 300 ppm [1]

CCN(C)C=Nc1cc(OC)cc(Nc2ccc(F)c(OC)c2)c1C [Compound 276, N-ethyl-N′-(3-((4-fluoro-3-methoxyphenyl)amino)-5-methoxy-2-methylphenyl)-N-methylformimidamide]
≥ 70%: inhibition of growth at 300 ppm (Pyricularia oryzae) | inhibition of growth at 300 ppm (Rhizoctonia solani) | inhibition of growth at 300 ppm (Alternaria solani) | inhibition of growth at 300 ppm [1] | pest or weed control at 500 ppm (Phakopsora pachyrhizi)

CCN(C)C=Nc1cc(F)cc(Nc2ccccc2OC(F)(F)F)c1C [Compound 303, N-ethyl-N′-(5-fluoro-2-methyl-3-((2-(trifluoromethoxy)phenyl)amino)phenyl)-N-methylformimidamide]
≥ 70%: inhibition of growth at 300 ppm (Pyricularia oryzae) | inhibition of growth at 300 ppm (Rhizoctonia solani) | inhibition of growth at 300 ppm (Botrytis cinerea) | inhibition of growth at 300 ppm (Alternaria solani) | inhibition of growth at 300 ppm [1]

CCN(C)C=Nc1cc(C)cc(N(C)c2ccccc2)c1Cl [Compound 10, N′-(2-chloro-5-methyl-3-(methyl(phenyl)amino)phenyl)-N-ethyl-N-methylformimidamide]
≥ 70%: inhibition of growth at 300 ppm (Pyricularia oryzae) | inhibition of growth at 300 ppm (Botrytis cinerea) | inhibition of growth at 300 ppm (Alternaria solani) | inhibition of growth at 300 ppm [1]

CCN(C)C=Nc1cc(F)cc(N(C)c2ccc(Cl)cc2F)c1C [Compound 140, N′-(3-((4-chloro-2-fluorophenyl)(methyl)amino)-5-fluoro-2-methylphenyl)-N-ethyl-N-methylformimidamide]
≥ 70%: inhibition of growth at 300 ppm (Pyricularia oryzae) | inhibition of growth at 300 ppm (Rhizoctonia solani) | inhibition of growth at 300 ppm (Botrytis cinerea) | inhibition of growth at 300 ppm (Alternaria solani) | inhibition of growth at 300 ppm [1]

CCN(C)C=Nc1cc(C)cc(Nc2ccc(F)c(F)c2)c1Cl [Compound 72, N′-(2-chloro-3-((3,4-difluorophenyl)amino)-5-methylphenyl)-N-ethyl-N-methylformimidamide]
≥ 70%: inhibition of growth at 300 ppm (Pyricularia oryzae) | inhibition of growth at 300 ppm (Rhizoctonia solani) | inhibition of growth at 300 ppm (Botrytis cinerea) | inhibition of growth at 300 ppm (Alternaria solani) | inhibition of growth at 300 ppm [1]

CCN(C)C=Nc1cc(F)cc(Nc2cccc(OC)c2)c1C [Compound 30, N-ethyl-N′-(5-fluoro-3-((3-methoxyphenyl)amino)-2-methylphenyl)-N-methylformimidamide]
≥ 70%: inhibition of growth at 300 ppm (Pyricularia oryzae) | inhibition of growth at 300 ppm (Rhizoctonia solani) | inhibition of growth at 300 ppm (Alternaria solani) | inhibition of growth at 300 ppm [1] | pest or weed control at 500 ppm (Phakopsora pachyrhizi)

CCN(C)C=Nc1cc(Cl)cc(Nc2cccc(F)c2)c1C [Compound 166, N′-(5-chloro-3-((3-fluorophenyl)amino)-2-methylphenyl)-N-ethyl-N-methylformimidamide]
≥ 70%: inhibition of growth at 300 ppm (Pyricularia oryzae) | inhibition of growth at 300 ppm (Botrytis cinerea) | inhibition of growth at 300 ppm (Alternaria solani) | inhibition of growth at 300 ppm [1]

CCN(C)C=Nc1cc(C)cc(Nc2ccccc2F)c1C [Compound 6, N-ethyl-N′-(3-((2-fluorophenyl)amino)-2,5-dimethylphenyl)-N-methylformimidamide]
≥ 70%: inhibition of growth at 300 ppm (Pyricularia oryzae) | inhibition of growth at 300 ppm (Rhizoctonia solani) | inhibition of growth at 300 ppm (Alternaria solani) | inhibition of growth at 300 ppm [1]

CCN(C)C=Nc1cc(F)cc(Cc2ccc(Br)c(C)c2)c1C [Compound 232, N′-(3-(4-bromo-3-methylbenzyl)-5-fluoro-2-methylphenyl)-N-ethyl-N-methylformimidamide]
≥ 70%: inhibition of growth at 300 ppm (Pyricularia oryzae) | inhibition of growth at 300 ppm (Rhizoctonia solani) | inhibition of growth at 300 ppm (Botrytis cinerea) | inhibition of growth at 300 ppm (Alternaria solani) | pest or weed control at 500 ppm (Phakopsora pachyrhizi)

CCN(C)C=Nc1cc(F)cc(Cc2ccc(C#N)cc2)c1C [Compound 202, N′-(3-(4-cyanobenzyl)-5-fluoro-2-methylphenyl)-N-ethyl-N-methylformimidamide]
≥ 70%: inhibition of growth at 300 ppm (Pyricularia oryzae) | inhibition of growth at 300 ppm (Rhizoctonia solani) | inhibition of growth at 300 ppm (Botrytis cinerea) | inhibition of growth at 300 ppm (Alternaria solani) | pest or weed control at 500 ppm (Phakopsora pachyrhizi)

CCN(C)C=Nc1cc(OC)cc(Nc2ccccc2OC(F)(F)F)c1C [Compound 300, N-ethyl-N′-(5-methoxy-2-methyl-3-((2-(trifluoromethoxy)phenyl)amino)phenyl)-N-methylformimidamide]
≥ 70%: inhibition of growth at 300 ppm (Pyricularia oryzae) | inhibition of growth at 300 ppm (Rhizoctonia solani) | inhibition of growth at 300 ppm (Alternaria solani) | inhibition of growth at 300 ppm [1] | pest or weed control at 500 ppm (Phakopsora pachyrhizi)

CCN(C)C=Nc1cc(C)cc(Nc2cccc(OC)c2)c1Cl [Compound 42, N′-(2-chloro-3-((3-methoxyphenyl)amino)-5-methylphenyl)-N-ethyl-N-methylformimidamide]
≥ 70%: inhibition of growth at 300 ppm (Pyricularia oryzae) | inhibition of growth at 300 ppm (Rhizoctonia solani) | inhibition of growth at 300 ppm (Botrytis cinerea) | inhibition of growth at 300 ppm (Alternaria solani) | pest or weed control at 500 ppm (Phakopsora pachyrhizi)

CCN(C)C=Nc1cc(F)cc(N(C)c2cccc(C(F)(F)F)n2)c1C [Compound 291, N-ethyl-N′-(5-fluoro-2-methyl-3-(methyl(6-(trifluoromethyl)pyridin-2-yl)amino)phenyl)-N-methylformimidamide]
≥ 70%: inhibition of growth at 300 ppm (Pyricularia oryzae) | inhibition of growth at 300 ppm (Alternaria solani) | inhibition of growth at 300 ppm [1]

CCc1cccc(Nc2cc(Cl)cc(N=CN(C)CC)c2C)n1 [Compound 243, N′-(5-chloro-3-((6-ethylpyridin-2-yl)amino)-2-methylphenyl)-N-ethyl-N-methylformimidamide]
≥ 70%: inhibition of growth at 300 ppm (Pyricularia oryzae) | inhibition of growth at 300 ppm (Rhizoctonia solani) | inhibition of growth at 300 ppm (Alternaria solani) | inhibition of growth at 300 ppm [1]

CCN(C)C=Nc1cc(F)cc(N(C)c2ccc(F)cc2F)c1C [Compound 80, N′-(3-((2,4-difluorophenyl)(methyl)amino)-5-fluoro-2-methylphenyl)-N-ethyl-N-methylformimidamide]
≥ 70%: inhibition of growth at 300 ppm (Pyricularia oryzae) | inhibition of growth at 300 ppm (Rhizoctonia solani) | inhibition of growth at 300 ppm (Botrytis cinerea) | inhibition of growth at 300 ppm (Alternaria solani) | pest or weed control at 500 ppm (Phakopsora pachyrhizi)

CCN(C)C=Nc1cc(F)cc(NCc2ccc(F)c(C)c2)c1C [Compound 182, N-ethyl-N′-(5-fluoro-3-((4-fluoro-3-methylbenzyl)amino)-2-methylphenyl)-N-methylformimidamide]
≥ 70%: inhibition of growth at 300 ppm (Pyricularia oryzae) | inhibition of growth at 300 ppm (Rhizoctonia solani) | inhibition of growth at 300 ppm (Botrytis cinerea) | inhibition of growth at 300 ppm (Alternaria solani) | pest or weed control at 500 ppm (Phakopsora pachyrhizi)

CCN(C)C=Nc1cc(Cl)cc(Nc2ccccc2C)c1C [Compound 185, N′-(5-chloro-2-methyl-3-(o-tolylamino)phenyl)-N-ethyl-N-methylformimidamide]
≥ 70%: inhibition of growth at 300 ppm (Pyricularia oryzae) | inhibition of growth at 300 ppm (Rhizoctonia solani) | inhibition of growth at 300 ppm (Botrytis cinerea) | inhibition of growth at 300 ppm (Alternaria solani) | pest or weed control at 500 ppm (Phakopsora pachyrhizi)

CCN(C)C=Nc1cc(C)cc(N(C)c2c(C)cccc2F)c1Cl [Compound 138, N′-(2-chloro-3-((2-fluoro-6-methylphenyl)(methyl)amino)-5-methylphenyl)-N-ethyl-N-methylformimidamide]
≥ 70%: inhibition of growth at 300 ppm (Pyricularia oryzae) | inhibition of growth at 300 ppm (Rhizoctonia solani) | inhibition of growth at 300 ppm (Alternaria solani) | inhibition of growth at 300 ppm [1]

— patent US12545639B2, “3-substituted phenylamidine compounds, preparation and use thereof” (PI INDUSTRIES LTD., priority 2019, dated 2026)
